Results as given in PMC12125979, “Complete xylan utilization pathway and regulation mechanisms involved in marine algae degradation by cosmopolitan marine and human gut microbiota” (The ISME Journal, 2025).
Substitutions are numbered along the chain they refer to.

What was measured:
XylRA [1] = assay: isothermal titration calorimetry; conditions: 10 mM Tris-HCl pH 8.0, 100 mM NaCl, 25°C; effector
XylC = target: T1, XylC; assay: isothermal titration calorimetry; assay type: binding, Vibrio sp. EA2; conditions: 10 mM Tris-HCl pH 8.0, 100 mM NaCl, 25°C
T1 construct: construct borders only in supplement

BxlE = target: T2, BxlE (Streptomyces thermoviolaceus, UniProt Q76BU9); assay: biochemical; set-up: isothermal titration calorimetry binding of xylooligosaccharides to recombinant substrate-binding proteins
T2 construct: gene bxlD
T2 sequence (Q76BU9 1-436): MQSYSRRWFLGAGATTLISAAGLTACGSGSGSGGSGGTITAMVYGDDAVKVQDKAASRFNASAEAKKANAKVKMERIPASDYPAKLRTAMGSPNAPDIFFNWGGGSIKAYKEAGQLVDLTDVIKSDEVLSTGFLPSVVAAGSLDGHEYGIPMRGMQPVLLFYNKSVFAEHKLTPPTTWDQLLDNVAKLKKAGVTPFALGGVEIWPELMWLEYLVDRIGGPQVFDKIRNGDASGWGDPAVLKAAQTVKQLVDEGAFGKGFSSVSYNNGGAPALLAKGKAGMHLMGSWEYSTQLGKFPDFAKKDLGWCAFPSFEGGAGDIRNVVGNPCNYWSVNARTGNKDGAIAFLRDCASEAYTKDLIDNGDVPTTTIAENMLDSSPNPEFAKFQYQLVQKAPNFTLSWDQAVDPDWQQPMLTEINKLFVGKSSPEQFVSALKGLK

XylRA [2] = target: XylRA (Vibrio sp. EA2, UniProt A0A090T8X9 1-401); assay: EMSA; xylose; EMSA: 25 ng biotin-labelled probe, 0.1-0.5 nmol XylRA in 20 uL EMSA/Gel-shift binding buffer (Beyotime), xylose present, room temperature; salt and pH not stated; conditions: protein: recombinant; tags: C-terminal His (pET-22b); chain copies: 2; label: 5'-biotin on strand 1; blunt

OC1OC[C@@H](O)[C@H](O)[C@H]1O (stereo partly shown) [X, xylose] gave a Kd (XylRA [1]) of 5100 nM.

With OC1OC[C@@H](O)[C@H](O[C@@H]2OC[C@@H](O)[C@H](O[C@@H]3OC[C@@H](O)[C@H](O[C@@H]4OC[C@@H](O)[C@H](O)[C@H]4O)[C@H]3O)[C@H]2O)[C@H]1O (stereo partly drawn) [β-1,3X4, β-1,3-xylotetraose] the Kd (XylC) was 1000 nM.

OC1OC[C@@H](O[C@@H]2OC[C@@H](O)[C@H](O)[C@H]2O)[C@H](O)[C@H]1O (stereo partly drawn) [β-1,4X2] gave a Kd (BxlE) of 15.1 ± 4.04 nM.

In the case of OC1OC[C@@H](O[C@@H]2OC[C@@H](O[C@@H]3OC[C@@H](O)[C@H](O)[C@H]3O)[C@H](O)[C@H]2O)[C@H](O)[C@H]1O (stereo partly drawn) [β-1,4X3], the Kd (BxlE) is reported as 6.28 ± 1.93 nM.

Work on OC1OC[C@@H](O[C@@H]2OC[C@@H](O[C@@H]3OC[C@@H](O[C@@H]4OC[C@@H](O)[C@H](O)[C@H]4O)[C@H](O)[C@H]3O)[C@H](O)[C@H]2O)[C@H](O)[C@H]1O (stereo partly drawn) [β-1,4X4] yielded a Kd (BxlE) of 13.2 ± 1.93 nM.

B1: PxylB (dsDNA)
DNA 1: CAATTATGTTTTTTTACAGGTGAATTCACGGATTTCACGAGTGAGTCTGA
DNA 2: TCAGACTCACTCGTGAAATCCGTGAATTCACCTGTAAAAAAACATAATTG
B1: binds (XylRA [2]).

B2: PxylT (dsDNA)
DNA 1: ACATTTAGCAAATAGGTGAAATTTGGTATCAAAAATCATAATTGATGGCG
DNA 2: CGCCATCAATTATGATTTTTGATACCAAATTTCACCTATTTGCTAAATGT
B2: binds (XylRA [2]).

B3: PxylC (dsDNA)
DNA 1: GGAAATAAATAGAATAAATGTGGTGAGAGATATAATAATACTTGCCATAG
DNA 2: CTATGGCAAGTATTATTATATCTCTCACCACATTTATTCTATTTATTTCC
B3: binds (XylRA [2]).

B4: Pxyn26B (dsDNA)
DNA 1: ACACAAAAAAAATATAAAAATATAATCAGAAAAAATCATAATTGATATTG
DNA 2: CAATATCAATTATGATTTTTTCTGATTATATTTTTATATTTTTTTTGTGT
B4: binds (XylRA [2]).

B5: PxylT-m2 (dsDNA)
DNA 1: B2 DNA 1 with A10G, A11C, A31G, A32C
DNA 2: B2 DNA 2 with T19G, T20C, T40G, T41C
B5: no binding (XylRA [2]).
